Columns and labels:
AuroraA-TPX2 = target: T1, AuroraA-TPX2 (Homo sapiens, UniProt O14965); test: AuroraA-TPX2 Homogeneous Time Resolved Fluorescent (HTRF) kinase assay; type: biochemical; settings: average; read-out: AurA_IC50_IP (uM Avg)
T1 construct: 20 μL of AuroraA-TPX2 KD GST for a final volume of about 41 μL; GST
T1 sequence (O14965 133-383 limits assumed): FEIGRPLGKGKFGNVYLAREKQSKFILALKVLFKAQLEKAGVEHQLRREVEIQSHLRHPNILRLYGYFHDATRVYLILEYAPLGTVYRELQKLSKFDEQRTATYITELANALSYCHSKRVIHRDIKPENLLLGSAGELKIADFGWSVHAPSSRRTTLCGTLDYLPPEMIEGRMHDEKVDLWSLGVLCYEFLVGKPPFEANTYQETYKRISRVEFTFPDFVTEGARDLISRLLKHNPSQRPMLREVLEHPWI
T1 sequence (Q9ULW0 1-43 partner limits assumed): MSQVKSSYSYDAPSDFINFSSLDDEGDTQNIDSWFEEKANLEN
Procedure, shortened: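 HTRF read-out (Eu 615 nm to APC 655 nm) of phosphorylated biotin-PLK, detected with 0.02 nM europium anti-phosphoPLK antibody and 0.0005 mg/mL SA-APC after overnight equilibration.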

AuroraB = target: T2, AuroraB (Homo sapiens, UniProt Q96GD4); test: AuroraB Homogeneous Time Resolved Fluorescent (HTRF) kinase assay; type: biochemical; settings: average; read-out: AurB_IC50_IP (uM Avg)
T2 construct: 20 μL of AuroraB FL H is for a final volume of 41 μL; His
T2 sequence (Q96GD4 whole entry): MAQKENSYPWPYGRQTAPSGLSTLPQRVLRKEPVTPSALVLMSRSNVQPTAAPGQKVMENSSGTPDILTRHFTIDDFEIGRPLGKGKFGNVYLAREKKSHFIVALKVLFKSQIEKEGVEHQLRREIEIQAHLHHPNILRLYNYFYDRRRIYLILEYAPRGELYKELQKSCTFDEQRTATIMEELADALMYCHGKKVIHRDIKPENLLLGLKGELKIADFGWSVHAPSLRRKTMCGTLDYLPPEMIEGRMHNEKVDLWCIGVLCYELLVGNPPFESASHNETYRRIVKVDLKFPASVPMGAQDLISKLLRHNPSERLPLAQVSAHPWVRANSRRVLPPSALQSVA
Procedure, shortened: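 Full-length His-tagged kinase phosphorylates biotinylated Histone H3 (0.1 μM final) with ATP in pH 7.5 HEPES containing MgCl, MnCl, DTT and BSA for about 90 min. EDTA-containing detection mix with SA-APC and Eu-anti-phosphoHistone H3 then equilibrated about 60 min; HTRF read with 320 nm excitation, emissions 615/655 nm.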

SMILES | IC50 (AuroraA-TPX2) | IC50 (AuroraB)
O=C(c1cc2nccc(Sc3ccc(Nc4nnc(-c5ccc(Cl)cc5)c5ccccc45)cc3)c2s1)N1CCOCC1 [compound 314, (7-(4-(4-(4-chlorophenyl)phthalazin-1-ylamino)phenylthio)thieno[3,2-b]pyridin-2-yl)(morpholino)methanone] | 0.058 µM | 0.057 µM
COc1ccc2c(Cc3ccc(Nc4nnc(-c5ccccc5)c5ccccc45)cc3)ccnc2c1 [compound 319, N-(4-((7-(methyloxy)-4-quinolinyl)methyl)phenyl)-4-phenyl-1-phthalazinamine] | 0.176 µM | 0.02 µM
CCc1cc(N2CC[C@H]3CCCC[C@@H]3C2)nnc1Nc1ccc(Oc2ccnc3cc(OC)cnc23)cc1 [compound 320, 4-ethyl-N-(4-((7-(methyloxy)-1,5-naphthyridin-4-yl)oxy)phenyl)-6-((4aR,8aS)-octahydro-2(1H)-isoquinolinyl)-3-pyridazinamine] | 0.112 µM | 0.067 µM
CCc1cc(N2CCCCC2)nnc1Nc1ccc(Oc2ccnc3cc(OC)cnc23)cc1 [compound 321, 4-ethyl-N-(4-((7-(methyloxy)-1,5-naphthyridin-4-yl)oxy)phenyl)-6-(1-piperidinyl)-3-pyridazinamine] | 0.304 µM | 0.051 µM
COc1cccc(-c2nnc(Nc3ccc(Sc4ccnc5ccccc45)cc3)c3ccccc23)n1 [compound 327, 4-(6-(methyloxy)-2-pyridinyl)-N-(4-(4-quinolinylthio)phenyl)-1-phthalazinamine] | 0.118 µM | 0.014 µM
COc1ccc2c(Cc3ccc(Nc4nnc(-c5ccc(Cl)cc5)c5ccccc45)cc3)ccnc2c1 [compound 328, 4-(4-chlorophenyl)-N-(4-((7-(methyloxy)-4-quinolinyl)methyl)phenyl)-1-phthalazinamine] | 0.047 µM | 0.032 µM
c1ccc(-c2nnc(Nc3ccc(Sc4ccnc5[nH]ccc45)cc3)c3ccccc23)cc1 [compound 329, 4-phenyl-N-(4-(1H-pyrrolo[2,3-b]pyridin-4-ylthio)phenyl)-1-phthalazinamine] | 0.114 µM | 0.009 µM
COc1ccc2c(Sc3ccc(Nc4nnc(-c5ccccc5)c5ccccc45)cc3)ccnc2c1 [compound 331, N-(4-((7-(methyloxy)-4-quinolinyl)thio)phenyl)-4-phenyl-1-phthalazinamine] | 0.192 µM | 0.155 µM
COc1ccc2c(Sc3ccc(Nc4nnc(-c5ccc(Cl)cc5)c5ccccc45)cc3)ccnc2c1 [compound 334, 4-(4-chlorophenyl)-N-(4-(7-methoxyquinolin-4-ylthio)phenyl)phthalazin-1-amine] | 0.049 µM | 0.067 µM
CCc1cc(-c2cccc(Cl)c2)nnc1Nc1ccc(Oc2ccnc3cc(OC)cnc23)cc1 [compound 335, 6-(3-chlorophenyl)-4-ethyl-N-(4-(7-methoxy-1,5-naphthyridin-4-yloxy)phenyl)pyridazin-3-amine] | 0.062 µM | 0.021 µM
COc1cnc2c(Oc3ccc(Nc4nnc(N5CCSCC5)c5ccccc45)cc3)ccnc2c1 [compound 337, N-(4-(7-methoxy-1,5-naphthyridin-4-yloxy)phenyl)-4-thiomorpholinophthalazin-1-amine] | 0.076 µM | 0.015 µM
Fc1cc(F)c2c(Sc3ccc(Nc4nnc(-c5ccc(Cl)cc5)c5ccccc45)cc3)ccnc2c1 [compound 342, 4-(4-chlorophenyl)-N-(4-(5,7-difluoroquinolin-4-ylthio)phenyl)phthalazin-1-amine] | 0.189 µM | 0.045 µM
Cc1ccc(-c2ccc3c(Oc4ccc(Nc5nnc(-c6ccccc6)c6ccccc56)cc4)ccnc3c2)o1 [compound 344, N-(4-(7-(5-methylfuran-2-yl)quinolin-4-yloxy)phenyl)-4-phenylphthalazin-1-amine] | 0.057 µM | 0.022 µM
COc1ccc2c(Oc3ccc(Nc4nnc(-c5ccc(Cl)cc5)c5ccccc45)cc3)ccnc2c1 [compound 345, 4-(4-chlorophenyl)-N-(4-(7-methoxyquinolin-4-yloxy)phenyl)phthalazin-1-amine] | 0.04 µM | 0.024 µM
COc1cnc2c(Sc3ccc(Nc4nnc(N5CCCCC5)c5ccccc45)cc3)ccnc2c1 [compound 346, N-(4-(7-methoxy-1,5-naphthyridin-4-ylthio)phenyl)-4-(piperidin-1-yl)phthalazin-1-amine] | 0.044 µM | 0.024 µM
COc1ccc2nccc(Oc3ccc(Nc4nnc(-c5ccccc5)c5ccccc45)cc3)c2n1 [compound 347, N-(4-(6-methoxy-1,5-naphthyridin-4-yloxy)phenyl)-4-phenylphthalazin-1-amine] | 0.067 µM | 0.01 µM
COc1ccc2nccc(Sc3ccc(Nc4nnc(-c5ccc(Cl)cc5)c5ccccc45)cc3)c2n1 [compound 348, 4-(4-chlorophenyl)-N-(4-(6-methoxy-1,5-naphthyridin-4-ylthio)phenyl)phthalazin-1-amine] | 0.057 µM | 0.023 µM
COc1cnc2c(Oc3ccc(Nc4nnc(-c5cc(C)no5)c5ccccc45)cc3)ccnc2c1 [compound 350, N-(4-(7-methoxy-1,5-naphthyridin-4-yloxy)phenyl)-4-(3-methylisoxazol-5-yl)phthalazin-1-amine] | 0.04 µM | 0.007 µM

Compounds with a lower IC50 (AuroraA-TPX2), results first:

IC50 (AuroraA-TPX2) | IC50 (AuroraB) | SMILES
0.036 µM | 0.031 µM | COc1ccc2nccc(Sc3ccc(Nc4nnc(-c5ccc(Cl)cc5)c5ccccc45)cc3)c2c1 [compound 315, 4-(4-chlorophenyl)-N-(4-(6-methoxyquinolin-4-ylthio)phenyl)phthalazin-1-amine]
0.014 µM | 0.023 µM | COc1cnc2c(Oc3ccc(Nc4nnc(-c5cc(Cl)cs5)c5ccccc45)cc3)ccnc2c1 [compound 316, 4-(4-chloro-2-thienyl)-N-(4-((7-(methyloxy)-1,5-naphthyridin-4-yl)oxy)phenyl)-1-phthalazinamine]
0.018 µM | 0.015 µM | COc1cnc2c(Oc3ccc(Nc4nnc(-c5cccc(C)c5)c5ccccc45)cc3)ccnc2c1 [compound 317, N-(4-((7-(methyloxy)-1,5-naphthyridin-4-yl)oxy)phenyl)-4-(3-methylphenyl)-1-phthalazinamine]
0.033 µM | 0.032 µM | CCc1cc(-c2ccc(C)cc2)nnc1Nc1ccc(Sc2ccnc3cc(OC)cnc23)cc1 [compound 322, 4-ethyl-N-(4-((7-(methyloxy)-1,5-naphthyridin-4-yl)thio)phenyl)-6-(4-methylphenyl)-3-pyridazinamine]
0.035 µM | 0.063 µM | Clc1ccc(-c2nnc(Nc3ccc(Sc4ccnc5cc(Br)cnc45)cc3)c3ccccc23)cc1 [compound 324, N-(4-((7-bromo-1,5-naphthyridin-4-yl)thio)phenyl)-4-(4-chlorophenyl)-1-phthalazinamine]
0.013 µM | 0.019 µM | COc1cnc2c(Sc3ccc(Nc4nnc(-c5ccc(Cl)cn5)c5ccccc45)cc3)ccnc2c1 [compound 325, 4-(5-chloro-2-pyridinyl)-N-(4-((7-(methyloxy)-1,5-naphthyridin-4-yl)thio)phenyl)-1-phthalazinamine]
0.026 µM | 0.039 µM | COc1cc2c(Oc3ccc(Nc4nnc(-c5ccccc5)c5ccccc45)cc3)ccnc2cc1OCc1ccccc1 [compound 326, N-(4-((6-(methyloxy)-7-((phenylmethyl)oxy)-4-quinolinyl)oxy)phenyl)-4-phenyl-1-phthalazinamine]
0.038 µM | 0.009 µM | Clc1ccc(-c2nnc(Nc3ccc(Sc4ccnc5[nH]ccc45)cc3)c3ccccc23)cc1 [compound 330, 4-(4-chlorophenyl)-N-(4-(1H-pyrrolo[2,3-b]pyridin-4-ylthio)phenyl)-1-phthalazinamine]
0.016 µM | 0.003 µM | Clc1ccc(-c2nnc(Nc3ccc(Sc4ccnc5ccsc45)cc3)c3ccccc23)cc1 [compound 332, 4-(4-chlorophenyl)-N-(4-(thieno[3,2-b]pyridin-7-ylthio)phenyl)-1-phthalazinamine]
0.019 µM | 0.01 µM | Cc1csc(-c2nnc(Nc3ccc(Sc4ccnc5cccnc45)cc3)c3ccccc23)c1 [compound 336, N-(4-(1,5-naphthyridin-4-ylthio)phenyl)-4-(4-methylthiophen-2-yl)phthalazin-1-amine]
0.005 µM | 0.009 µM | Cn1cc(-c2ccc3c(Oc4ccc(Nc5nnc(-c6ccccc6)c6ccccc56)cc4)ccnc3c2)cn1 [compound 338, N-(4-(7-(1-methyl-1H-pyrazol-4-yl)quinolin-4-yloxy)phenyl)-4-phenylphthalazin-1-amine]
0.021 µM | 0.028 µM | c1ccc(-c2nnc(Nc3ccc(Oc4ccnc5cc(-c6ccsc6)ccc45)cc3)c3ccccc23)cc1 [compound 339, 4-phenyl-N-(4-(7-(thiophen-3-yl)quinolin-4-yloxy)phenyl)phthalazin-1-amine]
0.024 µM | 0.008 µM | c1ccc(-c2nnc(Nc3ccc(Oc4ccnc5cc(-c6ccoc6)ccc45)cc3)c3ccccc23)cc1 [compound 343, N-(4-(7-(furan-3-yl)quinolin-4-yloxy)phenyl)-4-phenylphthalazin-1-amine]

Source: patent US8557816B2, “Aurora kinase modulators and method of use” (Amgen Inc., priority 2007, dated 2013)
